“Also recorded” adds a separate entry of the source.
How the values were obtained:
[1] = biological target: T1, TTR in human blood plasma (Homo sapiens, UniProt P02766); test: blood plasma TTR binding selectivity, antibody capture method; conditions: inhibitor 10.8 μM
T1 construct: from tissue; host or cells: human blood plasma
Procedure: Inhibitor binding selectivity to TTR in human blood plasma was assessed using a previously established antibody capture method (Purkey, H. E.; et al. Proc. Natl. Acad. Sci. USA 2001, 98, 5566-5571). In this evaluation, inhibitors (10.8 μM, ˜2-3× the natural concentration of TTR) are incubated in human blood plasma for 24 h at 37° C. Quenched sepharose resin is then added to the plasma to remove any small molecules that would bind to the resin as opposed to TTR. TTR and any TTR-bound small molecule is then immunocaptured using a polyclonal TTR antibody covalently attached to sepharose resin. After washing the resin (5×10 min washes), the antibody-TTR complex is dissociated at high pH and analyzed by RP-HPLC. The relative stoichiometry between TTR and inhibitor is then calculated from their HPLC peak areas using standard curves.
(§1) The procedures used for bacterial expression of TTR (Lai, Z.; et al. Biochemistry 1996, 35, 6470-6482), the stagnant fibril formation assay (Colon, W.; Kelly, J. W. Biochemistry 1992, 31, 8654-8660; Lai, Z.; et al. Biochemistry 1996, 35, 6470-6482), the blood plasma binding selectivity assay (Purkey, H. E.; et al. Proc. Natl. Acad. Sci. USA 2001, 98, 5566-5571), and analytical ultracentrifugation (Lashuel, H. A.; et al. Biochemistry 1998, 37, 17851-17864) have all been described in detail previously.
(§2) FIG. 3 is a chart showing a summary of dibenzofuran-based amyloid inhibition activity ([…]) against WT-TTR ([…]) fibril formation (pH 4.4, 72 h) and binding stoichiometry to TTR in human blood plasma. % Fibril formation (f.f.) values in the middle column represent the extent of f.f., and thus inhibitor efficacy, relative to WT-TTR f.f. in the absence of inhibitor (assigned to be 100%). Complete inhibition is equivalent to 0% f.f. The right column depicts the observed stoichiometry of inhibitor (dosed at […], ˜2-3× the concentration of plasma TTR) bound to TTR in blood plasma as determined using the antibody capture method.

[2] = biological target: T2, WT-TTR (Homo sapiens, UniProt P02766); test: stagnant acid-mediated TTR fibril formation assay (turbidity); assay type: biochemical; conditions: WT-TTR 3.6 μM; for inhibitor potency against fibril formation (in words): inhibitor 3.6 μM, pH 4.4, 72 h
T2 construct: made in house
Procedure: (§3) TTR amyloid inhibition efficacy was probed using a stagnant fibril formation assay described previously, wherein partial denaturation was triggered by acidification (pH 4.4, 37° C.) (Colon, W.; Kelly, J. W. Biochemistry 1992, 31, 8654-8660). Briefly, a test compound (7.2 or 3.6 μM) is incubated with TTR (3.6 μM) for 30 min in pH 7 buffer. Amyloidogenesis is then initiated by lowering to pH 4.4, where maximal fibril formation is observed with WT-TTR after 72 h (37° C.). The turbidity in the presence of a potential inhibitor (Ttest) is compared to that of a solution lacking a test compound (Tcontrol). […] From experience we know that excellent inhibitors allow <10% fibril formation at a small molecule concentration of 7.2 μM and <40% fibril formation at a concentration equal to that of WT-TTR (3.6 μM) (Hammarstrom, P.; et al. Science 2003, 299, 713-716; Klabunde, T.; et al. Nature Struct. Biol. 2000, 7, 312-321; Razavi, H.; et al. Angew Chem 2003, 42, 2758-2761; Miroy, G. J.; et al. Proc. Natl. Acad. Sci. USA 1996, 93, 15051-15056; Peterson, S. A.; et al. Proc. Natl. Acad. Sci. USA 1998, 95, 12956-12960; Baures, P. W.; et al. Bioorg. Med. Chem. 1998, 6, 1389-1401; Baures, P. W.; et al. Bioorg. Med. Chem. 1999, 7, 1339-1347; Petrassi, H. M.; et al. J. Am. Chem. Soc. 2000, 122, 2178-2192; McCammon, M. G.; et al. Structure 2002, 10, 851-863; Oza, V. B.; et al. J. Med. Chem. 2002, 45, 321-332; Sacchettini, J. C.; et al. Nature Rev. Drug Disc. 2002, 1, 267-275; Green, N. S.; et al. J. Am. Chem. Soc. 2003, 125, 13404-13414; Adamski-Werner, S. L.; et al. J. Med. Chem. 2004, 47, 355-374; Miller Sean, R.; et al. Lab. Inv. 2004, 84, 545-552). […] Therefore, when both the ligand and TTR are at equal concentrations, a population of TTR•I, TTR•I2 and unliganded TTR is observed, dictated by the dissociation constants. It is now established by other studies that inhibitor occupancy of only one of the two TTR binding sites is sufficient to stabilize the entire tetramer against amyloidogenesis (Wiseman, R. L.; et al. J. Am. Chem. Soc. 2005, in press). This is further supported by the observation herein that twenty-six of these dibenzofurans are excellent TTR amyloidogenesis inhibitors (<40% fibril formation) at a concentration equal to that of TTR (3.6 μM each, FIG. 3).
as §1
FIG. 2 is a table highlighting the concentration dependent acid-substituted dibenzofuran activity against WT-TTR (3.6 μM) amyloid fibril formation (f.f.) at pH 4.4 (72 h). Values represent the extent of f.f. and thus inhibitor efficacy relative to WT-TTR fibril formation in the absence of inhibitor (assigned to be 100%): complete inhibition is equivalent to 0% f.f.
as §2
FIG. 6 is a chart showing dibenzofuran-based inhibitor activity (7.2 μM) against WT-TTR (3.6 μM) amyloid fibril formation (f.f.) at pH 4.4 (72 h). […]

[3] = precipitation of small molecule under acid-mediated amyloidogenic conditions in the absence of TTR; assay type: physicochemical; conditions: 3.6 μM, pH 4.4, 37° C., 72 h
Procedure: as §3

Compound | binding selectivity to TTR in human blood plasma (in words) [1] | inhibitor potency against fibril formation (in words) [2] | precipitation of compound in the absence of TTR [3] | other results
O=C(O)c1cccc(-c2ccc(C(=O)O)c3oc4c(C(=O)O)cccc4c23)c1 [Compound 69] | modest | amongst the most potent |  | 
O=C(O)c1cccc(Nc2ccc(C(=O)O)c3oc4c(C(=O)O)cccc4c23)c1 [Compound 33] | modest | amongst the most potent |  | 
O=C(O)c1cccc2c1oc1c(C(=O)O)ccc(Nc3ccccc3F)c12 [Compound 36] |  | most potent |  | 
O=C(O)c1cccc2c1oc1c(C(=O)O)ccc(Nc3cc(Cl)cc(Cl)c3)c12 [Compound 30] |  |  | no measurable precipitation | 
O=C(O)c1ccc(Nc2ccc(C(=O)O)c3oc4c(C(=O)O)cccc4c23)cc1 [Compound 35] | all but two (31 and 35) exhibit dramatically increased binding selectivity |  |  | 
O=C(O)c1cccc2c1oc1c(C(=O)O)ccc(Oc3cccc(C(F)(F)F)c3)c12 [Compound 45] |  |  | no measurable precipitation | 
O=C(O)c1cccc2c1oc1c(C(=O)O)ccc(Nc3cc(C(F)(F)F)cc(C(F)(F)F)c3)c12 [Compound 31] | all but two (31 and 35) exhibit dramatically increased binding selectivity |  |  | 
O=C(O)c1cccc2c1oc1c(C(=O)O)ccc(-c3cc(Cl)cc(Cl)c3)c12 [Compound 63] |  | most potent |  | 
O=C(O)c1cccc2c1oc1c(C(=O)O)ccc(Nc3cccc(Cl)c3)c12 [Compound 27] |  |  | no measurable precipitation | 
O=C(O)c1cccc2c1oc1c(C(=O)O)cccc12 [Compound 1, dibenzofuran-4,6-dicarboxylic acid, reference compound] | no measurable binding selectivity |  |  | 
O=C(O)c1cccc2c1oc1c(C(=O)O)ccc(-c3ccccc3F)c12 [Compound 67] |  | most potent |  | 
O=C(O)c1cccc2c1oc1c(C(=O)O)ccc(-c3cc(F)cc(F)c3)c12 [Compound 62] |  |  | no measurable precipitation | 
O=C(O)c1cccc2c1oc1c(C(=O)O)ccc(Nc3cccc(C(F)(F)F)c3)c12 [Compound 26] |  |  | no measurable precipitation | 
O=C(O)c1cc(Nc2ccc(C(=O)O)c3oc4c(C(=O)O)cccc4c23)cc(C(=O)O)c1 [Compound 34] |  | all the inhibitors (except 34) display increased potency relative to the parent compound (1) |  | inhibition of WT-TTR fibril formation at 7.2 μM inhibitor (in words) ([2]; inhibitor 7.2 μM, pH 4.4, 37° C., 72 h): not as effective; also recorded: all but one (34) completely inhibit fibril formation
